Source: patent US20240226066A1, “CARDIOPROTECTION BY AUTOPHAGY INDUCTION AND METABOLIC REPROGRAMMING” (UNIVERSITE PARIS-SACLAY, priority 2021, published 2024)
Like-named read-outs stand apart in the source and are kept apart here.

Assays:
hERG potassium channel = target: T1, hERG potassium channel (Homo sapiens, UniProt Q12809); test: hERG channel binding assay ([3H]dofetilide displacement); conditions: for inhibition at 10 µM: human, probe [3H]dofetilide
T1 construct: Eurofins
Description: The evaluation of the binding of the compounds to the human hERG potassium channel was carried out as described previously (Eurofins).
Since the blocking of the human potassium channel hERG channel may be responsible for cardiac fibrillation leading to cardiac arrest and death of the patient, the binding of the 3 molecules SG6163F, VP331 and LOPA87 to this receptor was evaluated.

[1] = tested on: primary rat neonatal ventricular cardiomyocytes (RNVCs); test: Protection of RNVCs against camptothecin-induced apoptosis (LDH release, propidium iodide); type: cell-based; conditions: camptothecin 10 μM
Description: Neonatal rat cardiomyocytes were isolated as described previously (Wang et al., Cell Death Dis, 2016, 7:e2198).
(§1) A colorimetric assay was used to measure lactate dehydrogenase (LDH), a cytosolic enzyme which is released during permeabilization of the plasma membrane (Promega G1780). The assay was performed using cell culture supernatants obtained from H9C2 or RNVC (rat neonatal ventricular myocyte) cells and lysis buffer (LB) was used as a positive control for total cell lysis. The LDH release was measured by absorbance reading at 490 nm (Infinite spectrofluorimeter, Tecan).
Propidium iodide, a non-permeable fluorescent DNA marker, was used to measure membrane integrity. Propidium iodide at 10 μM was added to the culture medium and a fluorescence reading was performed (for […]: 530 nm; em: 620 nm), the LB was used as a positive control for total cell lysis.
(§2) The effect of the compounds was then evaluated on primary rat neonatal ventricular cardiomyocytes (RNVCs) using the LDH test and propidium iodide staining. […] The absence of proliferative effects of the compounds was also evaluated on the A549 lung cancer cell line for 48 h (FIG. 2C).

[2] = tested on: A549 lung cancer cell line; test: Influence of hits on growth of A549 cancer cells (total LDH after lysis); type: cell-based; conditions: 48 h
Description: The cells were cultured for 6 h in the presence or absence of the hits, and then for 42 h. Finally, the cells were lysed with lysis buffer and the amount of LDH was measured to evaluate the total cell growth.
as §1, §2

RNVCs [3] = test: Mitochondrial network and cell volume by confocal microscopy (Mitotracker, calcein-AM, IMARIS); type: cell-based, rat; conditions: 1 and 10 μM, 6 h
Description: FIG. 6. Effects on mitochondrial dynamics by fluorescence microscopy The RNVCs were treated with 1 μM hits (FIG. 6A) and 10 μM hits (FIG. 6B) for 6 h and the mitochondrial network was stained with 200 nM of Mitotracker. The mitochondrial network and individual mitochondria were then analyzed using a Leica confocal microscope and IMARIS software. Data are presented as mean±SEM with single-factor ANOVA, and multiple Sidak comparisons. *, p<0.05, **, p<0.01, ***, p<0.001 with respect to DMSO.
FIG. 11: following the treatment of the RNVCs with the compounds as indicated, the cell volume was stained with 4 μM of calcein-AM. The cell volume was then analyzed using the IMARIS software.
Confocal microscopy. On day 0, 4×10^5 neonatal cardiomyocytes were plated overnight on laminin-coated 35 mm culture dishes (10 μg/ml). On day 1, the cells were treated with various compounds at 1 or 10 μM for 6 hours. The cells were incubated with Mitotracker Red 580 at 200 nM for 20 minutes at 37° C., then 4 μM of calcein (Calcein AM, Life Technologies, St Aubin, France) for 10 minutes at 37° C. The images were acquired with a Leica confocal microscope (SP5) (Mannheim, Germany). The mitochondrial network and the 3D model of cell volume were reconstructed using the IMARIS software (Bitplane Company, Zurich, Switzerland); therefore the cell volume, mitochondrial number and volume were analyzed.
Due to the importance of mitochondria and reactive oxygen species (ROS) levels in the fate of cardiomyocyte cells, the hypothesis that the compounds could impact the mitochondrial network was explored. Following treatment of the RNVCs with the compounds tested, the mitochondrial network was stained with 200 nM of Mitotracker and the cell volume with 4 μM of calcein-AM. Thus, the mitochondrial network and the individual mitochondria were then analyzed using the IMARIS software.

RNVCs [4] = test: Mitochondrial ROS production with MitoSOX fluorescent probe; type: cell-based, rat; conditions: 1 μM, 6 h
Description: FIG. 12: The RNVCs were treated with 0.1% DMSO, 3 μM rapamycin, 1 μM digitoxigenin, 1 μM digoxin, 1 μM minaprin, 1 μM VP331, 1 μM LOPA87, 10 μM SG6163F for 6 h, then the ROS production was stained with the MitoSOX fluorescent probe.
The RNVCs were treated with 0.01% DMSO, 3 μM rapamycin, […], 1 μM digoxin, 1 μM minaprine, 1 μM VP331, 1 μM LOPA87, 10 μM SG6163F in a serum-free cell culture medium for 6 hours. The contents (50 μg) of a MitoSOX™ mitochondrial superoxide indicator vial (ThermoFisher, M36008) were dissolved in 13 μl dimethyl sulfoxide (DMSO) to prepare a 5 mM MitoSOX™ reagent stock solution. Next, the 5 mM MitoSOX™ reagent stock solution in PBS was diluted to prepare a 5 μM working solution of MitoSOX™ reagent. After treatment, the cells were rinsed twice with hot PBS and then incubated with a MitoSOX reagent working solution for 10 minutes at 37° C. The cells were gently rinsed three times with hot PBS. Red fluorescence was detected with a Leica confocal microscope. Nuclear fluorescence was suppressed and mitochondrial fluorescence intensity was measured using ImageJ software.
ROSs are produced or accumulated as a by-product of mitochondrial activity metabolism. Thus, the ROSs may be a consequence of mitochondrial function or may reflect a defect in the mitochondrial antioxidant system.

[5] = tested on: AMP-activated protein kinase (AMPK); test: Western blot of AMPK phosphorylation in RNVCs; type: cell-based, rat
Description: FIG. 8D: AMPK alpha2 and phospho-AMPK protein levels in RNVCs. Data are presented as mean±SEM with single-factor ANOVA, and multiple Sidak comparisons. *, p<0.05, **, p<0.01, ***, p<0.001 with respect to DMSO.
The H9C2 cells and RNVCs were detached in LB containing: 50 mM Tris, 150 mM NaCl, 1 mM EDTA, 0.5% deoxycholate, 1% Triton X 100, 0.1% SDS (pH 8.0). The cells were collected and placed on ice for 30 minutes. The cells were then centrifuged at 2000 g for 20 minutes at for 4° C. The supernatant was transferred to a new tube and stored on ice. The protein concentration was determined by BCA assay. The protein samples were diluted with sample buffer (2× Laemmli, Sigma), mixed, and heated for 5 minutes at 95° C. The samples were then loaded into a precast gel with a gradient of 4 to 20% and migrated for 15 minutes at 300 V. After migration, the membrane and the gel were placed on the base of a Trans Blot Turbo cassette (Bio Rad) and the proteins were transferred for 3 minutes at 2.5 V. After transfer, the membrane was blocked with 5% milk in PBS-Tween and incubated with a primary antibody diluted in PBS-Tween containing 5% w/v milk at 4° C. with gentle stirring, overnight. […] The images were recorded with a gel imaging system (Bio Rad). […]
Next, the energy metabolism was analyzed in real time using the Seahorse technology in H9C2 cells.

T1 sequence (Q12809 whole entry): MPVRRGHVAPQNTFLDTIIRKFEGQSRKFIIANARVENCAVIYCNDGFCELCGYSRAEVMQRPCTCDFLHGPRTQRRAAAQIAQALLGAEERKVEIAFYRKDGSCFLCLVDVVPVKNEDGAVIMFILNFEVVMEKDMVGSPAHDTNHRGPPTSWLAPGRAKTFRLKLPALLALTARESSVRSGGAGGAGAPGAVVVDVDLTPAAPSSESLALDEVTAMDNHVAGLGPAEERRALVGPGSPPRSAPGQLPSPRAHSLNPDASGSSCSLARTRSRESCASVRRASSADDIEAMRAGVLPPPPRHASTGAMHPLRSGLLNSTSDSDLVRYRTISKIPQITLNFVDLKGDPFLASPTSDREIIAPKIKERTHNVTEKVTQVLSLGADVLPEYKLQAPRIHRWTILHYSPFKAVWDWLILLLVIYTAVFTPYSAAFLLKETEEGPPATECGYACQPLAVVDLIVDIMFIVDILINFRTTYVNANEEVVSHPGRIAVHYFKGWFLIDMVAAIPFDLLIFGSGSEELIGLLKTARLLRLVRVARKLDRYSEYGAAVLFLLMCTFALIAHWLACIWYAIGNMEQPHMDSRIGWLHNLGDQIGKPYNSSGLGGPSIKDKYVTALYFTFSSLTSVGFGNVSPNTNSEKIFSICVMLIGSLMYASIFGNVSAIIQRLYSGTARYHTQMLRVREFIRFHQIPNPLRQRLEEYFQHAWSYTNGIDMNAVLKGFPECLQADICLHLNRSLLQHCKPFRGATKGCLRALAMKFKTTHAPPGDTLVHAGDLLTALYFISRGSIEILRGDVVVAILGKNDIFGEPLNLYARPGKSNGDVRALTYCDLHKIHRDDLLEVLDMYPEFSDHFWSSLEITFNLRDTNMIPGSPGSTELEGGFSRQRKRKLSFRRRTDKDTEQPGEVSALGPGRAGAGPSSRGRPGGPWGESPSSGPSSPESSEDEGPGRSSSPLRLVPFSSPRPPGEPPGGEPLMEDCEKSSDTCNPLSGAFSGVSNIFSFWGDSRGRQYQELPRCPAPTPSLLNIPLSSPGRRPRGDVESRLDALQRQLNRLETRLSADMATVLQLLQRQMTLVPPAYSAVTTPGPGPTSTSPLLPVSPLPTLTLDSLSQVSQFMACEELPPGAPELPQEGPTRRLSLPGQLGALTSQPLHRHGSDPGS

CN(C)c1ccc(-c2cc(=O)[nH]c(-c3ccccc3)n2)cc1 [LOPA87]
inhibition at 10 µM (hERG potassium channel; inhibition of tritiated dofetilide binding, only values >50% considered effective, read-out: % inhibit 1st assay): 14.6%
inhibition at 10 µM (hERG potassium channel; inhibition of tritiated dofetilide binding, only values >50% considered effective, read-out: % inhibit 2nd assay): 5.3%
inhibition at 10 µM (hERG potassium channel; mean of two independent measurements, read-out: % inhibit Mean): 10%
binding to the hERG channel (hERG potassium channel; inhibition of specific binding of [3H]dofetilide in vitro): negligible
inhibition of apoptosis of RNVCs [1]: did not protect
effect on A549 cell growth [2]: no proliferative effect
effect on the mitochondrial network (RNVCs [3]): no effect
number of mitochondria (RNVCs [3]): no effect
local level of mitochondrial superoxide anion (RNVCs [4]): induced an elevation
AMPK phosphorylation compared with the DMSO control [5]: 1.5 fold
